Source: PMC5421785, “Citrullination only infrequently impacts peptide binding to HLA class II MHC” (PLoS ONE, 2017)
Where two headings read alike, the source gives them in different places. One block for each molecule: values may come before it. Square brackets hold non-standard residues; d marks the D form. Ends that are not written are not given here. Peptide text beside a SMILES is read from it. Cit = NC(=O)NCCC[C@H](N)C(=O)O

What was measured:
[1] = biological target: T1, HLA-DRB1*01:01 (Homo sapiens, UniProt P01903+P01911, A100R/D57E/F55L/F60I/F76Y/I96L/L162R/M171V/P40L/Q125E/R42F/V115G/Y59C); assay: HLA class II peptide binding, inhibition of radiolabeled peptide binding to purified MHC
T1 construct: EBV transformed homozygous cell lines were used as sources of MHC molecules; endogenous in cells; host or cells: EBV transformed homozygous cell lines

[2] = biological target: T2, HLA-DRB1*04:01 (Homo sapiens, UniProt P01903+P01911, A100K/A169T/F76Y/I96L/K127E/L162R/M171V/N62H/P40V/Q125Y/R42H/S133A/S149N/S66Y/V115G/V209L/W38E); assay: as above
T2 construct: EBV transformed homozygous cell lines were used as sources of MHC molecules; endogenous in cells; host or cells: EBV transformed homozygous cell lines

[3] = citrullinated 15-mer peptide (X = citrulline), purified HLA-DRB1*01:01, read-out: DRB1*01:01 binding capacity, Cit peptide (IC50 nM)
[4] = citrullinated 15-mer peptide (X = citrulline), purified HLA-DRB1*04:01, read-out: DRB1*04:01 binding capacity, Cit peptide (IC50 nM)
[5] = citrullinated 15-mer (X), purified MHC, inhibition of radiolabeled peptide binding, dash = IC50 >40,000 nM, read-out: DRB1*01:01 binding capacity, Cit peptide (IC50 nM)
[6] = citrullinated 15-mer (X), purified MHC, inhibition of radiolabeled peptide binding, dash = IC50 >40,000 nM, read-out: DRB1*04:01 binding capacity, Cit peptide (IC50 nM)
[7] = wild-type (unmodified Arg) 15-mer peptide, purified HLA-DRB1*01:01, read-out: DRB1*01:01 binding capacity, WT peptide (IC50 nM)
[8] = wild-type (unmodified Arg) 15-mer peptide, purified HLA-DRB1*04:01, read-out: DRB1*04:01 binding capacity, WT peptide (IC50 nM)

Molecule: CSCC[C@H](NC(=O)[C@H](Cc1ccc(O)cc1)NC(=O)[C@H](CCC(N)=O)NC(=O)[C@H](CC(C)C)NC(=O)[C@@H]1CCCN1C(=O)[C@H](CC(=O)O)NC(=O)[C@@H]1CCCN1C(=O)CNC(=O)[C@H](CCCCN)NC(=O)[C@H](CCC(=O)O)NC(=O)[C@H](CCCNC(N)=O)NC(=O)[C@@H]1CCCN1C(=O)CNC(=O)[C@@H](N)CC(C)C)C(=O)N[C@@H](CCCNC(=N)N)C(=O)O [LGPXEKGPDPLQYMR] (H-LGP[Cit]EKGPDPLQYMR-OH)
IC50 [1, 3]: 10900 nM | IC50 [2, 4]: > 40000 nM

Molecule: CC[C@H](C)[C@H](NC(=O)CNC(=O)[C@H](C)NC(=O)[C@H](C)NC(=O)CNC(=O)[C@H](CCCNC(N)=O)NC(=O)[C@H](CCC(=O)O)NC(=O)CNC(=O)[C@@H]1CCCN1C(=O)[C@H](CCSC)NC(=O)CNC(=O)[C@H](CCC(N)=O)NC(=O)[C@H](CC(C)C)NC(=O)CNC(=O)[C@@H]1CCCN1)C(=O)O [PGLQGMPGEXGAAGI] (H-PGLQGMPGE[Cit]GAAGI-OH)
IC50 [1, 3]: 55 nM | IC50 [2, 4]: 4170 nM

Molecule: CSCC[C@H](NC(=O)[C@H](CCC(=O)O)NC(=O)[C@@H](N)CCC(=O)O)C(=O)N[C@@H](CC(C)C)C(=O)N[C@@H](CCC(N)=O)C(=O)N[C@@H](CCCNC(N)=O)C(=O)N[C@@H](CCC(=O)O)C(=O)N[C@@H](CCC(=O)O)C(=O)N[C@@H](C)C(=O)N[C@@H](CCC(=O)O)C(=O)N[C@@H](CC(N)=O)C(=O)N[C@H](C(=O)N[C@@H](CC(C)C)C(=O)N[C@@H](CCC(N)=O)C(=O)N[C@@H](CO)C(=O)O)[C@@H](C)O [EEMLQXEEAENTLQS] (H-EEMLQ[Cit]EEAENTLQS-OH)
IC50 [1, 5]: 869 nM | IC50 [2, 6]: 14000 nM

Molecule: CC(C)C[C@H](NC(=O)[C@H](CCC(=O)O)NC(=O)[C@H](CCC(N)=O)NC(=O)[C@H](CC(C)C)NC(=O)[C@H](CCC(=O)O)NC(=O)[C@@H](NC(=O)[C@H](CCCCN)NC(=O)[C@H](CCC(=O)O)NC(=O)[C@H](CC(N)=O)NC(=O)[C@@H](NC(=O)[C@H](CCCNC(N)=O)NC(=O)[C@@H](NC(=O)[C@H](CC(N)=O)NC(=O)[C@H](CCCCN)NC(=O)[C@@H](N)Cc1ccccc1)[C@@H](C)O)[C@@H](C)O)C(C)C)C(=O)O [FKNTXTNEKVELQEL] (H-FKNT[Cit]TNEKVELQEL-OH)
IC50 [1, 5]: 9330 nM | IC50 [2, 6]: 1140 nM

Molecule: ERQMREMEENFAVEA [Vimentin 341 WT]
IC50 [1, 7]: 11100 nM | IC50 [2, 8]: 912 nM

Molecule: CC(C)C[C@H](NC(=O)[C@H](CC(C)C)NC(=O)[C@H](CCCNC(=N)N)NC(=O)[C@@H](NC(=O)CNC(=O)[C@@H]1CCCN1C(=O)[C@@H](NC(=O)[C@H](CO)NC(=O)[C@H](CO)NC(=O)[C@H](CCCNC(=N)N)NC(=O)[C@H](CC(C)C)NC(=O)[C@H](CCCNC(N)=O)NC(=O)[C@@H](NC(=O)[C@H](C)NC(=O)[C@@H](N)CO)C(C)C)C(C)C)C(C)C)C(=O)O [SAVXLRSSVPGVRLL] (H-SAV[Cit]LRSSVPGVRLL-OH)
IC50 [1, 5]: 19 nM | IC50 [2, 6]: 1050 nM

Other lines, results leading:

IC50 ([1]; citrullinated peptide as listed (X at Cit position), read-out: DRB1*01:01 binding capacity Cit peptide (IC50 nM)): 5.6 nM | IC50 ([2]; citrullinated peptide as listed (X at Cit position), read-out: DRB1*04:01 binding capacity Cit peptide (IC50 nM)): 55 nM
Molecule: CC[C@H](C)[C@H](NC(=O)[C@H](CC(N)=O)NC(=O)[C@H](CCC(N)=O)NC(=O)[C@H](CO)NC(=O)CNC(=O)[C@H](CCC(=O)O)NC(=O)[C@@H](NC(=O)[C@H](CO)NC(=O)[C@H](CC(C)C)NC(=O)[C@H](CC(C)C)NC(=O)[C@H](CCCNC(N)=O)NC(=O)[C@H](CC(C)C)NC(=O)[C@H](Cc1ccccc1)NC(=O)[C@@H](N)[C@@H](C)O)[C@@H](C)O)C(=O)N[C@H](C(=O)O)[C@@H](C)O [TFLXLLSTEGSQNIT] (H-TFL[Cit]LLSTEGSQNIT-OH)

IC50 [1, 7]: 1500 nM | IC50 [2, 8]: 17000 nM
Molecule: QAKQESTEYRRQVQS [Vimentin 311 WT]

IC50 [1, 5]: > 40000 nM | DRB1*01:01 binding capacity, WT/cit ratio ([1]; ratio of WT IC50 to Cit IC50): 0.7 | IC50 [2, 6]: > 40000 nM | DRB1*04:01 binding capacity, WT/cit ratio ([2]; ratio of WT IC50 to Cit IC50): 1.0
Molecule: CSCC[C@H](NC(=O)[C@H](CCC(=O)O)NC(=O)[C@H](CCC(=O)O)NC(=O)[C@H](CCC(=O)O)NC(=O)[C@H](Cc1ccc(O)cc1)NC(=O)[C@H](CC(C)C)NC(=O)[C@H](CC(=O)O)NC(=O)CNC(=O)[C@H](CC(C)C)NC(=O)[C@H](CCCNC(N)=O)NC(=O)[C@H](CO)NC(=O)[C@H](CCCCN)NC(=O)CNC(=O)[C@@H](N)CCC(N)=O)C(=O)N[C@@H](CCCNC(=N)N)C(=O)O [QGKSXLGDLYEEEMR] (H-QGKS[Cit]LGDLYEEEMR-OH; N-terminus and C-terminus assumed)

IC50 ([1]; read-out: DRB1*01:01 binding capacity, WT peptide (IC50 nM)): 7580 nM | IC50 ([2]; read-out: DRB1*04:01 binding capacity, WT peptide (IC50 nM)): 1030 nM
Molecule: ASRPSSSRSYVTTST [Vimentin 21 WT]

IC50 [1, 3]: 18000 nM | IC50 [2, 4]: > 40000 nM
Molecule: N=C(N)NCCC[C@H](NC(=O)[C@H](CCC(=O)O)NC(=O)CNC(=O)[C@@H]1CCCN1C(=O)[C@H](Cc1ccccc1)NC(=O)CNC(=O)[C@H](CCCNC(N)=O)NC(=O)[C@H](CCC(=O)O)NC(=O)CNC(=O)[C@H](CCCNC(=N)N)NC(=O)[C@@H]1CCCN1C(=O)CN)C(=O)NCC(=O)N[C@@H](CO)C(=O)N1CCC[C@H]1C(=O)O [GPRGEXGFPGERGSP] (H-GPRGE[Cit]GFPGERGSP-OH)
